Test results published in US9499490B2, “Fluorophenyl pyrazol compounds” (Eli Lilly and Company, priority 2013, dated 2016).

Tests used:
mouse MetAP2 = target: T1, mouse MetAP2 (Mus musculus, UniProt O08663); test: Enzymatic activity assay of mouse MetAP2 (LC/MS detection of product peptide); assay type: biochemical; conditions: full length mouse MetAP2, substrate 150 μM, 40 min; read-out: IC50 value for mMetAP2
T1 construct: Full length MetAP2 (human and mouse) and MetAP1 (human) proteins are generated from Sf9 cells; made in house; host or cells: Sf9 insect cells
T1 sequence (O08663 whole entry): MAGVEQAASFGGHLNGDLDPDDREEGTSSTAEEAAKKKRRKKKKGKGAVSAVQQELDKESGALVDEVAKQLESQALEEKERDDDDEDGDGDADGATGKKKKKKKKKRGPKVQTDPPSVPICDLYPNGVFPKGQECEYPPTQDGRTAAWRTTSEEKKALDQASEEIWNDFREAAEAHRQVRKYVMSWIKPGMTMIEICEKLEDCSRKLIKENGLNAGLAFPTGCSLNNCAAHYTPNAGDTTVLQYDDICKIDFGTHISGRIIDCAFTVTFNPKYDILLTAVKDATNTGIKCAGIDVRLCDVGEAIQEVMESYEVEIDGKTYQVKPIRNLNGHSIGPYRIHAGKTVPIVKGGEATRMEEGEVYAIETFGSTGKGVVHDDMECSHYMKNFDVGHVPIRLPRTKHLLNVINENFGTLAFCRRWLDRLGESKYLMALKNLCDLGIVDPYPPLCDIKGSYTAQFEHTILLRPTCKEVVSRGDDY
Protocol: (§1) Full length MetAP2 (human and mouse) and MetAP1 (human) proteins are generated from Sf9 cells using procedure similar to that described in Biochemistry 2003, 42, 5035-5042. MetAP2 and MetAP1 are purified in the presence of 5 mM MnCl2 and 2 mM CoCl2 respectively, and stored at −78° C. before use.
(§2) Compound inhibition of the catalytic activity of human and mouse MetAP2 in the present invention is monitored by the formation of the product peptide (Gly-Lys-Val-Lys-Val-Gly-Val-Asn-Gly) from the substrate peptide (Met-Gly-Lys-Val-Lys-Val-Gly-Val-Asn-Gly) via LC/MS detection. The reaction is typically conducted by incubating the enzyme, testing compound and substrate (150 μM) in a 100 μl assay buffer (50 mM HEPES, 100 mM NaCl, 50 mg/mL BSA, 0.17 mM Triton X-100 at pH 7.5) for 40 min. After the reaction is stopped by the addition of 200 μl acetonitrile, the levels of product and remaining substrate are quantified on a mass spectrometer. The activity of human MetAP1 is monitored by the formation of the fluorescent product rhodmine-methionine from the substrate methionine-rhodamine-methionine on a spectrophotometer with the excitation light at 460 nm and emission light at 535 nm. The reaction is typically conducted by incubating the enzyme, testing compound and substrate (50 μM) in a 100 μl assay buffer (50 mM HEPES, 100 mM NaCl, 0.1% BSA, 0.05% Tween-20, 50 μM CoCl2) for 60 min. […]

human MetAP1 = target: T2, human MetAP1 (Homo sapiens, UniProt P53582); test: Enzymatic activity assay of human MetAP1 (fluorescent rhodamine substrate); assay type: biochemical; conditions: full length human MetAP1, substrate 50 μM, 60 min
T2 construct: Full length MetAP2 (human and mouse) and MetAP1 (human) proteins are generated from Sf9 cells; made in house; host or cells: Sf9 insect cells
Protocol: as §1, §2

obese DIO mice = test: Therapeutic weight loss effect in high fat diet induced obese (DIO) mice; assay type: in vivo, mouse; conditions: oral 30 mg/kg twice a day
Protocol: To determine the therapeutic weight loss effects and improvement of metabolic parameters, compounds from the invention are tested in the high fat diet (HFD) feeding induced obese mouse model (DIO mice). In this model, C57/B16J male mouse is fed with the 60% HFD (D12492i, Research Diets) for 16˜28 weeks to establish obesity with body weight reaching around 50 g. The mice will gradually increase the body weight to about 50 g and maintain that weight in this obese state. Test compound (via the vehicle of 0.5% HEC plus 0.25% Tween-80 at 5 mL/kg) is administered orally to the obese DIO mice once or twice daily throughout the study duration. The dose-dependent weight loss of obese DIO mice for Example 1 of the oral treatment at 30 mg/kg twice a day is about 6%, 10%, and 14% weight loss compared to the vehicle group at day 7, day 14, and day 21 respectively. The data support that the compound of Example 1 is associated with desired weight loss and offers therapeutic weight loss effect.

human MetAP2 = target: T3, human MetAP2 (Homo sapiens, UniProt P50579); test: Enzymatic activity assay of human MetAP2 (LC/MS detection of product peptide); assay type: biochemical; conditions: full length human MetAP2, substrate 150 μM, 40 min; read-out: IC50 value for hMetAP2
T3 construct: Full length MetAP2 (human and mouse) and MetAP1 (human) proteins are generated from Sf9 cells; made in house; host or cells: Sf9 insect cells
T3 sequence (P50579 whole entry): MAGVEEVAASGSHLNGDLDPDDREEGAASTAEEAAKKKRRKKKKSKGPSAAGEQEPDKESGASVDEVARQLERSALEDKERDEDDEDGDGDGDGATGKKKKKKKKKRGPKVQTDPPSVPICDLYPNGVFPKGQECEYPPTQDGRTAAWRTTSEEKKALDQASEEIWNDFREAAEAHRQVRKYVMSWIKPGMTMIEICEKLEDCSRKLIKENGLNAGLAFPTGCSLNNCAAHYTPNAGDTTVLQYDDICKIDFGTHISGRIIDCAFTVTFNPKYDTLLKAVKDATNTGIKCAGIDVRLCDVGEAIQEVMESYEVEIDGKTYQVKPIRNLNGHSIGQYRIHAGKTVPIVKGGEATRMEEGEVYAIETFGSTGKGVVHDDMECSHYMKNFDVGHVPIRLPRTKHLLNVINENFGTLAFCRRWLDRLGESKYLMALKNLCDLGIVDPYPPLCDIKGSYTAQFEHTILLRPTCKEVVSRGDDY
Protocol: as §1, §2

- IC50 (mouse MetAP2): 36 nM
- IC50 (human MetAP1): > 30000 nM
- IC50 (human MetAP2): 11 nM
SMILES: NC(=O)NCc1cccc(Oc2c[nH]nc2-c2ccc(F)cc2)c1 [Example 1, [3-[[3-(4-Fluorophenyl)-1H-pyrazol-4-yl]oxy]phenyl]methylurea]
- weight loss compared to the vehicle group (obese DIO mice; day 7): about 6%
- weight loss compared to the vehicle group (obese DIO mice; day 14): ~10%
- weight loss compared to the vehicle group (obese DIO mice; day 21): ~14%
